Data from paper PMC8765320, “Identification of a Proteasome-Targeting Arylsulfonamide with Potential for the Treatment of Chagas’ Disease” (Antimicrobial Agents and Chemotherapy, 2022).

What was measured:
[1] = system: CYP51; parameters: method as in PMID 25740547; details: cited from earlier work
[2] = system: L. donovani, T. cruzi, and T. brucei; experiment: Phenotypic screening against three kinetoplastids; format: cell-based; details: range over all three kinetoplastids; read-out: EC50 values against the mammalian stages of these parasites
[3] = system: mitochondrial T. cruzi malic enzyme (mTcME); experiment: Thermal proteome profiling, mTcME; format: binding, Trypanosoma cruzi; details: lysate, compound at 10× EC50
Procedure: Aliquots of each lysate were then incubated at designated temperatures (33 to 69°C) and then, for each temperature, insoluble (denatured) proteins were removed. The resulting soluble protein samples were reduced, alkylated, and digested with trypsin prior to derivatization with tandem mass tags. Pooled peptides were fractionated by high-pressure liquid chromatography and analyzed by LC/MS-MS prior to identification and quantitation. The melting points of identified proteins were then established using the TPP software package. Full melt curves were established for 6,771 proteins, representing 39.4% coverage of the T. cruzi proteome.
T. cruzi (X10/7 strain) mid-log-phase epimastigotes (∼1 × 10^10) were harvested by centrifugation (1,912 × g, 15 min, 4°C) and washed with ice-cold PBS (1,912 × g, 5 min, 4°C); finally, the cell pellet was resuspended in 8 ml of ice-cold lysis buffer (1 mM EDTA, 1 mM dithiothreitol [DTT], 100 μM TLCK [Nα-p-tosyl-L-lysine chloromethyl ketone], and 1× Roche EDTA-free COmplete protease inhibitor cocktail in 50 mM potassium phosphate buffer [pH 7.4]). […] The resulting lysate was centrifuged (100,000 × g, 20 min, 4°C), the supernatant was collected, and the protein concentration was determined using a Bio-Rad protein assay. […]

[4] = system: T. cruzi malic enzyme (cTcME); experiment: Malic enzyme assay in clarified epimastigote lysates (NADPH production, 340 nm); format: biochemical, Trypanosoma cruzi
From the text: Malic enzyme (ME) catalyzes the oxidative decarboxylation of malate to pyruvate with the concomitant reduction of NAD(P)^+ to NAD(P)H. In light of our TPP studies, we next sought to determine whether the binding of compound 1 to cTcME inhibits enzymatic activity. The ME-dependent production of NADPH was monitored in clarified lysates of T. cruzi epimastigotes at 340 nm after the addition of malate. In the first instance, this assay was validated using ATR-073, an established inhibitor of cTcME ([27]). […] Similarly, preincubation of lysates with 20 μM and 1 μM concentrations of compound 1 inhibited ME activity by 96 and 68%, respectively (Fig. 4C). […] It should be noted that ATR-073 and compound 1 are structurally similar, both being substituted N-phenyl aryl sulfonamides, this common moiety constituting the pharmacophore of this chemical series.
Logarithmic T. cruzi epimastigotes were harvested (1,690 × g, 10 min, 4°C), washed once in ice-cold phosphate-buffered saline, and resuspended at 2 × 10^9 cells ml^−1 in lysis buffer (10 mM phosphate buffer [pH 7.2], 10 mM EDTA, 5 mM benzamidine, 5 mM phenanthroline, 0.1 mM phenylmethylsulfonyl fluoride) containing 1 mg ml^−1 digitonin, followed by incubation at 28°C for 10 min. The resulting lysate was then centrifuged (13,000 × g, 10 min, 4°C), and the supernatant was harvested and stored on ice. The protein concentration of this clarified lysate was determined by using a standard Bio-Rad protein assay.
The activity of malic enzyme was assayed as previously described ([42]), with minor modifications. T. cruzi clarified lysate (30 μl) was added to a reaction mixture (500 μl final volume) containing 50 mM Tris-HCl buffer (pH 7.6), 1 mM MnCl2, and 0.12 mM NADP^+. Reactions were initiated by the addition of 5 mM L-malate. The reduction of NADP^+ was monitored at 340 nm using a UV-2401 spectrophotometer (Shimadzu). To monitor the effect of test compounds on the activity of malic enzyme, compounds (1 and 20 μM) were preincubated for 10 min with the lysate in the reaction mixture. DMSO (0.2%) was used as control. All enzymatic activities were calculated as Δabs min^−1 mg^−1 of protein.

[5] = system: HepG2 cells; experiment: HepG2 drug sensitivity assay (resazurin); format: cell-based; details: Homo sapiens; Mammalian HepG2; 72 h; weighted mean, n ≥ 3; read-out: Mean compound 1 EC50 ± SD
Procedure: L. donovani promastigote ([35]), axenic amastigote ([25]), and T. brucei bloodstream form ([36]) drug sensitivity assays were carried out as previously described. HepG2 monolayers were washed twice in PBS, detached with 0.05% trypsin/EDTA, and then diluted with fully supplemented MEM growth medium. Cells were pelleted at 80 × g for 5 min and resuspended in fully supplemented growth medium. Cells were seeded into 96-well plates (5 × 10^4/well) and allowed to adhere prior to exposure to test compounds. Plates were incubated at 37°C in the presence of 5% CO2 for 72 h. After incubation, resazurin (20 μl of a 2.5-mg/ml^−1 stock solution) was added to each well, followed by incubation for a further 2 h prior to fluorescence being read as described above.

COc1ccc(NS(=O)(=O)c2cc(-c3cc(C)n[nH]3)ccc2C)cc1OC [Compound 1]
CYP51 pIC50 [1]: 4.4 | EC50 [2]: 0.1 to 8 µM | impact on the thermal stability of mTcME [3]: no impact | reduction in ME activity ([4]; preincubation of lysates with 1 μM): 68% | reduction in ME activity ([4]; preincubation of lysates with 20 μM): 96% | EC50 [5]: 23 ± 3 µM
